# Reference: patent publication US20220306606A1, “MODULATOR OF CYSTIC FIBROSIS TRANSMEMBRANE CONDUCTANCE REGULATOR, PHARMACEUTICAL COMPOSITIONS, METHODS OF TREATMENT, AND PROCESS FOR MAKING THE MODULATOR” (Vertex Pharmaceuticals Incorporated, priority 2016, published 2022)
# “Also recorded” adds a separate entry of the source. Where two headings read alike, the source gives them in different places.
# Assays:
# Rat IV and PO PK studies = type: in vivo; settings: male Sprague-Dawley rats, oral 3 mg/kg
# Procedure: 5C. Experimental Protocol for Rat IV and PO PK Studies
# The tested compound was administered to male Sprague-Dawley rats as a single nominal intravenous dose of 3.0 mg/kg as a solution in 10% NMP, 10% solutol, 15% EtOH, 35% PEG400 and 30% D5W. The tested compound was also administered to male Sprague-Dawley rats at single nominal oral dose of 3 mg/kg as a solution in 5% NMP, 30% PEG400, 10% TPGS, 5% PVP-K30 at 5 mL/kg dose volume. Analyses of plasma and dose preparations were performed using LC/MS/MS.
# Plasma concentration-time profiles of the tested compound in Sprague-Dawley rats at scheduled (nominal) sampling times were analyzed by noncompartmental pharmacokinetic methods using PK function within Watson LIMS software, Version 7.4.2 (Thermo Scientific Inc, Waltham, Mass.). AUC values were calculated using the linear trapezoidal rule.
# [1] = molecular target: T1, Human Serum Albumin (HSA) (Homo sapiens, UniProt P02768); test: Chromatographic determination of Human Serum Albumin (HSA) binding; type: in vitro ADME; settings: ChiralPak HSA column retention time converted to % HSA
# T1 construct: purchased Sigma Aldrich 58469AST
# Procedure: 5B. Chromatographic Determination of Human Serum Albumin (HSA) Assay
# Chromatographic determination of Human Serum Albumin (HSA) values was performed on a UPLC-MS system using a ChiralPak® HSA column (p/n: 58469AST) from Sigma Aldrich. Mobile phase A consisted of 50 mM ammonium acetate buffer in water adjusted to pH=7.4, and mobile phase B was 2-propanol. The column compartment was kept at constant temperature of 30° C. Determination of retention time on the HSA column was performed by injecting […] of 0.5 mM of compound (in DMSO) using a linear gradient from 0%-30% B in 2.5 minutes, followed by a hold at 30%B for 2 minutes, and the final equilibration step from 30%-0% B in 1.5 minutes, for a total run time of 6 minutes. Flow rate was kept constant throughout the gradient and set to 1.8 mL/min. Compound retention time on the HSA column was converted to % HSA values according to a previously published protocol (Valko, et. al, 2003) correlating column retention times to standard plasma protein binding (PPB) values obtained from dialysis experiments. HSA data for certain compounds are summarized below in Table 8 below.
# Valko, K., Nunhuck, S., Bevan, C., Abraham, M. H., Reynolds, D. P. Fast Gradient HPLC Method to Determine Compounds Binding to Human Serwn Albumin. Relationships with Octanol/Water and. Immobilized Artificial Membrane Lipophilicity. J. of Pharm. Sci. 2003, 92, 2236-2248.
# F508del-CFTR [2] = molecular target: T2, F508del-CFTR (Homo sapiens, UniProt P13569, DEL508-508); test: Membrane potential optical (FLIPR) assay for F508del-CFTR modulators; type: cell-based; parameters: expressed in transfected cells; settings: read-out: CFTRdF508 EC50
# Source text: Membrane Potential Optical Methods for Assaying Properties of F508del-CFIR Modulators
# The assay utilizes fluorescent voltage sensing dyes to measure changes in membrane potential using a fluorescent plate reader (e.g., FLIPR III, Molecular Devices, Inc.) as a readout for increase in functional F508del in NIH 3T3 cells.
# 5A-A1. Identification of F508del-CTTR Modulators
# To identify modulators of F508del, a fluorescence based HTS assay format was developed. This HTS assay utilizes fluorescent voltage sensing dyes to measure changes in membrane potential on the FLIPR III as a measurement for increase in gating (conductance) of F508del NIH 3T3 cells.
# Bath Solution #1: (in mM) NaCl 160, KCl 4.5, CaCl2 2, MgCl2 1, HEPES 10, pH 7.4 with NaOH, Glucose 10.
# Chloride-free bath solution: Chloride salts in Bath Solution #1 (above) are substituted with gluconate salts.
# NIH3T3 mouse fibroblasts stably expressing F508del are used for optical measurements of membrane potential. The cells are maintained at 37° C. in 5% CO2 and 90% humidity in Dulbecco's modified Eagle's medium supplemented with 2 mM glutamine, 10% fetal bovine serum, 1×NEAR, β-ME, 1×pen/strep, and 25 mM HEPES in 175 cm^2 culture flasks, For all optical assays, the cells were seeded at 12,000 cells/well in 384-well matrigel-coated plates and cultured for 18-24 hrs at 37° C. for the potentiator assay. For the correction assays, the cells are cultured at 37° C. with and without compounds for 18-24 hours.
# F508del-CFTR [3] = molecular target: T2, F508del-CFTR; test: Ussing chamber chloride transport in HBE cells; type: cell-based; parameters: CF-HBE were isolated from patients homozygous for F508del; endogenous in cells; host or cells: primary human bronchial epithelial (HBE) cells, F508del/F508del
# Procedure: Ussing chamber experiments were performed on polarized airway epithelial cells expressing F508del to further characterize the F508del modulators identified in the optical assays. Non-CF and CF airway epithelia were isolated from bronchial tissue, cultured as previously described (Galietta, L. J. V., Lantero, S., Gazzolo, A., Sacco, O., Romano, L., Rossi, G. A., & Zegarra-Moran, O. (1998) In Vitro Cell Dev. Biol. 34, 478-481), and plated onto Costar® Snapwell™ filters that were precoated with NIH3T3-conditioned media. After four days the apical media was removed and the cells were grown at an air liquid interface for >14 days prior to use.
# HBE grown on Costar® Snnapwell™ cell culture inserts were mounted in an Ussing chamber (Physiologic Instruments, Inc., San Diego, Calif.), and the transepithelial resistance and short-circuit current in the presence of a basolateral to apical […] gradient (ISC) were measured using a voltage-clamp system (Department of Bioengineering, University of Iowa, Iowa). Briefly, HBE were examined under voltage-clamp recording conditions (Vhold=0 mV) at 37° C. The basolateral solution contained (in mM) 145 NaCl, 0.83 K2HPO4, 3.3 KH2PO4, 1.2 MgCl2, 1.2 CaCl2, 10 Glucose, 10 HEPES (pH adjusted to 7.35 with NaOH) and the apical solution contained (in mM) 145 NaGluconate, 1.2 MgCl2, 1.2 CaCl2, 10 glucose, 10 HEPES (pH adjusted to 7.35 with NaOH).
# 5A-A2. […]
# F508del-CFTR [4] = molecular target: T2, F508del-CFTR; test: F508del-CFTR processing and trafficking in vitro (170 to 180 kDa band); type: cell-based; parameters: CF-HBE were isolated from patients homozygous for F508del; endogenous in cells; host or cells: primary human bronchial epithelial (HBE) cells, F508del/F508del
# Procedure: The CFTR protein delivered to the cell surface by Compound 1 alone or in combination with Compound II (Compound 1/Compound II) was potentiated by Compound III.
# Incubation of F508del/F508del-HBE cells for 16 to 24 hours with 1 μM Compound 1 alone or in combination with […].
# [5] = Table 6, F508del NIH 3T3 cells, assay of Example 5A-A1
# T2 sequence (P13569 with tags, fused parts or gaps DEL508-508): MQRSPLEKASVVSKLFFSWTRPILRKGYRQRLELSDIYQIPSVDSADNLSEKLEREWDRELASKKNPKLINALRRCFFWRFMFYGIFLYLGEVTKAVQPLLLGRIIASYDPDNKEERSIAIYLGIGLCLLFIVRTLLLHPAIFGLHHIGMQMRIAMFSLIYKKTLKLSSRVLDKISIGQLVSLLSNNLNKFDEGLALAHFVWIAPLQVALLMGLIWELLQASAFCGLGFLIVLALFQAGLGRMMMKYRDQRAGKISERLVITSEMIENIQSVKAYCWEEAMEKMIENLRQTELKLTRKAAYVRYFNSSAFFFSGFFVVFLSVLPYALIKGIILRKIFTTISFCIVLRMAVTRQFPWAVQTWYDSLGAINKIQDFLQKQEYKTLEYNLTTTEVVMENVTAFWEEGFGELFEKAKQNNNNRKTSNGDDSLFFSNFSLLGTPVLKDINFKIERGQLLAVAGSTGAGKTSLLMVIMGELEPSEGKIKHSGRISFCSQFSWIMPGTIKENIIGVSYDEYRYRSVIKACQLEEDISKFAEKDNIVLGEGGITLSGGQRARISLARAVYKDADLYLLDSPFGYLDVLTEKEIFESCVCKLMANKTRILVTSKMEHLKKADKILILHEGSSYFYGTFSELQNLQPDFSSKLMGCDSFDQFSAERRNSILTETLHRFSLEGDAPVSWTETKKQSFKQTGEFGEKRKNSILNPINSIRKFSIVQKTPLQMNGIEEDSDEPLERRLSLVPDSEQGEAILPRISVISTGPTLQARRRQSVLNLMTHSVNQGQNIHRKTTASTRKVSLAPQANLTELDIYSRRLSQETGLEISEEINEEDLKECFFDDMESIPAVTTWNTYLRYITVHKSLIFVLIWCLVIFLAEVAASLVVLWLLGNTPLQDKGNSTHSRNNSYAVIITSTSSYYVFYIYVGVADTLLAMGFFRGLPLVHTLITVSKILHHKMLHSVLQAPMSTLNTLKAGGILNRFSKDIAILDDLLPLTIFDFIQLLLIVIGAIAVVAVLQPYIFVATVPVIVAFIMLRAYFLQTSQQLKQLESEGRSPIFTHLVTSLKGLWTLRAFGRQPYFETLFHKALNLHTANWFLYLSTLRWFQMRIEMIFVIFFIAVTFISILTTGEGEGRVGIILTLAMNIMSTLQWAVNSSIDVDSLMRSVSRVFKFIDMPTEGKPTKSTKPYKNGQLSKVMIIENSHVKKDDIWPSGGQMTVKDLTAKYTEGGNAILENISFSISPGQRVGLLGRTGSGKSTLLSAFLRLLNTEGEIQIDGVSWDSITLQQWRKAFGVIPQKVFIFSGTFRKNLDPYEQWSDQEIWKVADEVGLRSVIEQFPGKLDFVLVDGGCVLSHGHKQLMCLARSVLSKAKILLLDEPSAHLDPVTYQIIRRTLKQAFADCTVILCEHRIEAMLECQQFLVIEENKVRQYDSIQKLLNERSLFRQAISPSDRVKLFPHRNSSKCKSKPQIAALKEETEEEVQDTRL
# T1 sequence (P02768 25-609): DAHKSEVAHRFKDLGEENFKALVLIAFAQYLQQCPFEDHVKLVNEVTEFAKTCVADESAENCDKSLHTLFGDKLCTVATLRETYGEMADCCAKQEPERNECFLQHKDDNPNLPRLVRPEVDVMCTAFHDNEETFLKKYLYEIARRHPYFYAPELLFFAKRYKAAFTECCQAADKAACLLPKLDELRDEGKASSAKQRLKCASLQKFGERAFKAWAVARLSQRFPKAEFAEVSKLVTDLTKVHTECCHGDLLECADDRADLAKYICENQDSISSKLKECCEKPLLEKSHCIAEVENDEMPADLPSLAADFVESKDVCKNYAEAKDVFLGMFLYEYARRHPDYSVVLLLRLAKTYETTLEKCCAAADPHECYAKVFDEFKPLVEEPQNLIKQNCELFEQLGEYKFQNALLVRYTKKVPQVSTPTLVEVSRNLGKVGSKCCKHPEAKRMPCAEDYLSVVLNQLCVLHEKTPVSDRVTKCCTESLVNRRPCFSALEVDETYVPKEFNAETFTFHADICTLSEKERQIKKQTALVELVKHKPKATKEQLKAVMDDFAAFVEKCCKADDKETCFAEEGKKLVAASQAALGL
structure (smiles),measurement,setting,value
"C[C@@H]1CN(c2nc(-n3ccc(OCC(C)(C)C)n3)ccc2C(=O)NS(=O)(=O)c2cccnc2N)C(C)(C)C1 [Comp. A, reference compound]",Rat po % F,Rat IV and PO PK studies,28%
C[C@@H]1CN(c2nc(-n3ccc(OCC4(C(F)(F)F)CC4)n3)ccc2C(=O)NS(=N)(=O)c2ccccc2)C(C)(C)C1 (mixture of isomers),HSA binding,[1],98.%
"C[C@@H]1CN(c2nc(-n3ccc(OCC4(C(F)(F)F)CC4)n3)ccc2C(=O)NS(=O)(=O)c2ccc(F)cc2)C(C)(C)C1 [Compound 52, N-(4-fluorophenyl)sulfonyl-6-[3-[[1-(trifluoromethyl)cyclopropyl]methoxy]pyrazol-1-yl]-2-[(4S)-2,2,4-trimethylpyrrolidin-1-yl]pyridine-3-carboxamide]",EC50,F508del-CFTR [2]; [5],100 to 1000 nM
C[C@@H]1CN(c2nc(-n3ccc(OCCC4(C(F)(F)F)CC4)n3)ccc2C(=O)NS(=O)(=O)c2cccc(F)c2)C(C)(C)C1 [Compound 5],Rat po % F,Rat IV and PO PK studies,50%
"CC(C)(C)c1cc(C(C)(C)C)c(NC(=O)c2c[nH]c3ccccc3c2=O)cc1O [Compound III, N-(5-hydroxy-2,4-di-tert-butyl-phenyl)-4-oxo-1H-quinoline-3-carboxamide, reference compound]",potentiation of F508del-CFTR delivered to the cell surface,F508del-CFTR [3]; CFTR delivered by Compound 1 alone or in combination with Compound II,potentiated
"C[C@@H]1CN(c2nc(-n3ccc(OCCC4(C(F)(F)F)CC4)n3)ccc2C(=O)NS(=O)(=O)c2ccccc2)C(C)(C)C1 [Compound 1, N-(benzenesulfonyl)-6-[3-[2-[1-(trifluoromethyl)cyclopropyl]ethoxy]pyrazol-1-yl]-2-[(4S)-2,2,4-trimethylpyrrolidin-1-yl]pyridine-3-carboxamide]","steady-state levels, fold of untreated levels","F508del-CFTR [4]; F508del/F508del-HBE cells, 16 to 24 hours, 1 μM Compound 1 alone",6.5 fold
same,processing and trafficking of F508del-CFTR,F508del-CFTR [4]; in vitro,CFTR corrector
same,Rat po % F,Rat IV and PO PK studies,63%
same,chloride transport,"F508del-CFTR [3]; Ussing Chamber, F508del/F508del-HBE cells, listed as Compound I",enhanced chloride transport; also recorded: additive to the effect of Compound II
"C[C@@H]1CN(c2nc(-n3ccc(OCC4(C(F)(F)F)CC4)n3)ccc2C(=O)NS(=O)(=O)c2ccccc2C#N)C(C)(C)C1 [Compound 26, N-(2-Cyanophenyl)sulfonyl-6-[3-[[1-(trifluoromethyl)cyclopropyl]methoxy]pyrazol-1-yl]-2-[(4S)-2,2,4-trimethylpyrrolidin-1-yl]pyridine-3-carboxamide]",EC50,F508del-CFTR [2]; [5],< 100 nM
"C[C@@H]1CN(c2nc(-n3ccc(OCC4(C(F)(F)F)CC4)n3)ccc2C(=O)NS(=O)(=O)c2ccccc2)C(C)(C)C1 [Compound 14, N-(Benzeuesulfonyl)-6-[3-[[1-(trifluoromethyl)cyclopropyl]methoxy]pyrazol-1-yl]-2-[(4S)-2,2,4-trimethylpyrrolidin-1-yl]pyridine-3-carboxamide]",Rat po % F,Rat IV and PO PK studies,58%
"C[C@@H]1CN(c2nc(-n3ccc(OCC4(C(F)(F)F)CCC4)n3)ccc2C(=O)NS(=O)(=O)c2ccccc2)C(C)(C)C1 [Compound 10, N-(Benzenesulfonyl)-6-[3-[[1-(trifluoromethyl)cyclobutyl]methoxy]pyrazol-1-yl]-2-[(4S)-2,2,4-trimethylpyrrolidin-1-yl]pyridine-3-carboxamide]",Rat po % F,Rat IV and PO PK studies,41%
CC1CC(C)(C)N2c3nc(-n4ccc(OCCC5(C(F)(F)F)CC5)n4)ccc3C(=O)OC12 (stereo not shown),EC50,"F508del-CFTR [2]; Table 7, Compound 1 and its metabolites",> 30000 nM
